Measured values reported in US7928139B2 (Amgen Inc., priority 2006, dated 2011).

Biological target: HIF PHD2 (Homo sapiens, UniProt Q9GZT9)
Assay: PHD2 inhibition assay (TR-FRET, VCB-Eu detection of hydroxylated P564-HIF1α peptide)
Format: biochemical
Details: 2 nM PHD2, 100 nM P564-HIF1α peptide, 0.25 μM 2-oxoglutarate, 100 μM FeCl2, 2 mM ascorbic acid
Description: Inhibition of HIF PHD2 activity was quantified utilizing the TR-FRET technology. HIF PHD2 catalyzes a hydroxyl modification on the proline residue of the P564-HIF1α peptide substrate (Biotin-DLEMLAPYIPMDDDFQL (SEQ ID NO: 7)) resulting in recognition and binding of the europylated Von Hippel-Lindau protein (pVHL), elongin B and elongin C heterotrimeric (VCB-Eu) complex.
The PHD2 inhibition assay was executed by addition of freshly dissolved FeCl2 to 178.57 μM (100 μM final concentration) in PHD2 Reaction Buffer containing 30 mM MES, pH 6, 10 mM NaCl, 0.25% Brij-35, 0.01% BSA, and 1% DMSO. 28 μL of the iron solution and 2 μL of inhibitor compounds serially diluted in 100% DMSO (5% DMSO final) were added to black polypropylene 96-well microtiter plates. To that, 10 μL of 10 nM PHD2 (2 nM final) was added to all wells of the plate except for the 8 wells of column 12 (LO control), and allowed to incubate at room temperature on the shaker for one hour. Column 6 was the HI control containing PHD2 enzyme and 5% DMSO vehicle, but no inhibitor compound. To initiate the PHD2 enzymatic reaction, 10 μL of a solution containing 500 nM P564-HIF1α peptide (100 nM final), 10 mM ascorbic acid (2 mM final), and 1.25 μM 2-oxoglutarate (α-ketoglutarate; 0.25 μM final) in PHD2 Reaction Buffer was added to all wells of the plate and allowed to incubate on the shaker at room temperature for one hour.
The reaction was terminated by addition of 25 μL TR-FRET Buffer (50 mM TRIS-HCl, pH 9, 100 mM NaCl, 0.05% BSA, and 0.5% Tween-20) containing 150 mM succinate (product inhibitor; 50 mM final), 75 nM streptavidin-APC (25 nM final), and 7.5 nM VCB-Eu (2.5 nM final). The TR-FRET detection reagents were placed on a shaker for 1 hour to reach binding equilibrium before reading on the Discovery platform (PerkinElmer). Europium is excited at 315 nm and phosphoresces at 615 nm with a large Stoke's shift. APC, in turn, emits at 655 nm upon excitation at 615 nm. The TR-FRET signal is measured as the ratio of the APC 655 nm signal divided by the internal europium reference 615 nm emission signal.
The POC (percentage of control) was determined by comparing the signal from hydroxylated peptide substrate in the enzyme reaction containing inhibitor compound with that from PHD2 enzyme with DMSO vehicle alone (HI control), and no enzyme (LO control). POC was calculated using the formula: % control (POC)=(cpd−average LO)/(average HI−average LO)*100. Data (consisting of POC and inhibitor concentration in μM) was fitted to a 4-parameter equation (y=A+((B−A)/(1+((x/C)^D))), where A is the minimum y (POC) value, B is the maximum y (POC), C is the x (cpd concentration) at the point of inflection and D is the slope factor) using a Levenburg-Marquardt non-linear regression algorithm.

Chain of HIF PHD2 (Q9GZT9 whole entry): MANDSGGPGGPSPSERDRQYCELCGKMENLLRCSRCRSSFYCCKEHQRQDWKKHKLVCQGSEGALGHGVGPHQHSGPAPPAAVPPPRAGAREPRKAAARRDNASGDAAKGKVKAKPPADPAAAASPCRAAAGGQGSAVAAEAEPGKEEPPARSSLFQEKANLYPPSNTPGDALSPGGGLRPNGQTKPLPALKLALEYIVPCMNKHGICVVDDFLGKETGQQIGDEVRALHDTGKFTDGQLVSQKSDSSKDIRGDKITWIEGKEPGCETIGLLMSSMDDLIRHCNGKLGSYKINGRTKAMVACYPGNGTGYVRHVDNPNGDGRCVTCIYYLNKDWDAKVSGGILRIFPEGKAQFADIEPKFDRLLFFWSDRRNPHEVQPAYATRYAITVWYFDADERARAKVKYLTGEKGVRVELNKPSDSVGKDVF

`CN(C)c1ccc(-c2ccc3c(c2)C(O)=C(C(=O)NCC(=O)O)C(=O)C3(C)C)cc1` [Example 36, N-((6-(4-(Dimethylamino)phenyl)-4-hydroxy-1,1-dimethyl-2-oxo-naphthalen-3-yl)carbonyl)glycine] and `CN(C)c1cccc(-c2ccc3c(c2)C(O)=C(C(=O)NCC(=O)O)C(=O)C3(C)C)c1` [Example 39, N-((6-(3-(Dimethylamino)phenyl)-4-hydroxy-1,1-dimethyl-2-oxo-naphthalen-3-yl)carbonyl)glycine] fall in the same range of IC50: 0.1 to 0.5 µM for the first, 0.1 to 0.5 µM for the second.

`CC1(C)C(=O)C(C(=O)NCC(=O)O)=C(O)c2cc(-c3ccccc3Cl)ccc21` [Example 37] and `Cc1ccccc1-c1ccc2c(c1)C(O)=C(C(=O)NCC(=O)O)C(=O)C2(C)C` [Example 65, N-((6-(2-Methylphenyl)-4-hydroxy-1,1-dimethyl-2-oxo-naphthalen-3-yl)carbonyl)glycine] fall in the same range of IC50: 0.5 to 1 µM for the first, 0.5 to 1 µM for the second.

Compared with `CC1(C)C(=O)C(C(=O)NCC(=O)O)=C(O)c2cc(-c3ccc(Cl)cc3)ccc21` [Example 38, N-((6-(4-Chlorophenyl)-4-hydroxy-1,1-dimethyl-2-oxo-naphthalen-3-yl)carbonyl)glycine], `CC1(C)C(=O)C(C(=O)NCC(=O)O)=C(O)c2ccc(-c3ccccc3)cc21` [Example 52, N-((7-Phenyl-4-hydroxy-1,1-dimethyl-2-oxo-naphthalen-3-yl)carbonyl)glycine] is lower in IC50: 0.5 to 1 µM for the first, 0.1 to 0.5 µM for the second.

`CC1(C)C(=O)C(C(=O)NCC(=O)O)=C(O)c2cc(Br)ccc21` [Example 40, N-((6-Bromo-4-hydroxy-1,1-dimethyl-2-oxo-naphthalen-3-yl)carbonyl)glycine] and `CC1(C)C(=O)C(C(=O)NCC(=O)O)=C(O)c2ccc(Br)cc21` [Example 53, N-((7-Bromo-4-hydroxy-1,1-dimethyl-2-oxo-naphthalen-3-yl)carbonyl)glycine] cannot be ordered by IC50: under 0.1 µM for the first, under 0.1 µM for the second.

`CC1(C)C(=O)C(C(=O)NCC(=O)O)=C(O)c2ccc(C#N)cc21` [Example 41, N-((7-Cyano-4-hydroxy-1,1-dimethyl-2-oxo-naphthalen-3-yl)carbonyl)glycine] and `CC1(C)C(=O)C(C(=O)NCC(=O)O)=C(O)c2cc(C#N)ccc21` [Example 42, N-((6-Cyano-4-hydroxy-1,1-dimethyl-2-oxo-naphthalen-3-yl)carbonyl)glycine] cannot be ordered by IC50: under 0.1 µM for the first, under 0.1 µM for the second.

Compared with `CCC1(C)C(=O)C(C(=O)NCC(=O)O)=C(O)c2ccc(Cl)cc21` (centres unmarked) [Example 43, N-((7-Chloro-1-ethyl-4-hydroxy-1-methyl-2-oxo-naphthalen-3-yl)carbonyl)glycine], `CC1(C)C(=O)C(C(=O)NCC(=O)O)=C(O)c2ccc(Cl)cc21` [Example 48, N-((7-Chloro-4-hydroxy-1,1-dimethyl-2-oxo-naphthalen-3-yl)carbonyl)glycine] is lower in IC50: 0.1 to 0.5 µM for the first, under 0.1 µM for the second.

`O=C(O)CNC(=O)C1=C(O)c2ccc(F)cc2C2(CCOCC2)C1=O` [Example 44, N-((7-Fluoro-4-hydroxy-2-oxo-2′,3′,5′,6′-tetrahydro-spiro[naphthalene-1,4′-pyran]-3-yl)carbonyl)glycine] and `O=C(O)CNC(=O)C1=C(O)c2ccc(Cl)cc2C2(CCOCC2)C1=O` [Example 46, N-((7-Chloro-4-hydroxy-2-oxo-2′,3′,5′,6′-tetrahydro-spiro[naphthalene-1,4′-pyran]-3-yl)carbonyl)glycine] cannot be ordered by IC50: under 0.1 µM for the first, under 0.1 µM for the second.

`O=C(O)CNC(=O)C1=C(O)c2ccc(C(F)(F)F)cc2C2(CCOCC2)C1=O` [Example 45, N-((7-Trifluoromethyl-4-hydroxy-2-oxo-2′,3′,5′,6′-tetrahydro-spiro[naphthalene-1,4′-pyran]-3-yl)carbonyl)glycine] and `O=C(O)CNC(=O)C1=C(O)c2cc(F)c(F)cc2C2(CCOCC2)C1=O` [Example 58, N-((6,7-Difluoro-4-hydroxy-2-oxo-2′,3′,5′,6′-tetrahydro-spiro[naphthalene-1,4′-pyran]-3-yl)carbonyl)glycine] cannot be ordered by IC50: under 0.1 µM for the first, under 0.1 µM for the second.

`CC1(C)C(=O)C(C(=O)NCC(=O)O)=C(O)c2ccc(F)cc21` [Example 47, N-((7-Fluoro-4-hydroxy-1,1-dimethyl-2-oxo-naphthalen-3-yl)carbonyl)glycine] and `CC1(C)C(=O)C(C(=O)NCC(=O)O)=C(O)c2ccc(C(F)(F)F)cc21` [Example 49, N-((7-Trifluoromethyl-4-hydroxy-1,1-dimethyl-2-oxo-naphthalen-3-yl)carbonyl)glycine] cannot be ordered by IC50: under 0.1 µM for the first, under 0.1 µM for the second.

`C[C@H](NC(=O)C1=C(O)c2ccc(Br)cc2C(C)(C)C1=O)C(=O)O` [Example 50, N-((7-Bromo-4-hydroxy-1,1-dimethyl-2-oxo-naphthalen-3-yl)carbonyl)-L-alanine] and `C[C@H](NC(=O)C1=C(O)c2cc(Cl)ccc2C(C)(C)C1=O)C(=O)O` [Example 66, N-((6-Chloro-4-hydroxy-1,1-dimethyl-2-oxo-naphthalen-3-yl)carbonyl)-L-alanine] fall in the same range of IC50: 0.1 to 0.5 µM for the first, 0.1 to 0.5 µM for the second.

`CC1(C)C(=O)C(C(=O)NCC(=O)O)=C(O)c2ccc(-c3cccnc3)cc21` [Example 51, N-((7-(3-Pyridyl)-4-hydroxy-1,1-dimethyl-2-oxo-naphthalene-3-yl)carbonyl)glycine] and `CC1(C)C(=O)C(C(=O)NCC(=O)O)=C(O)c2ccccc21` [Example 63, N-((4-Hydroxy-1,1-dimethyl-2-oxo-naphthalen-3-yl)carbonyl)glycine] cannot be ordered by IC50: under 0.1 µM for the first, under 0.1 µM for the second.

First: CC(C)(NC(=O)C1=C(O)c2cc(Cl)ccc2C2(CCOCC2)C1=O)C(=O)O [Example 54, N-((6-Chloro-4-hydroxy-2-oxo-2′,3′,5′,6′-tetrahydro-spiro[naphthalene-1,4′-pyran]-3-yl)carbonyl)-2-methylalanine]
Second: C[C@H](NC(=O)C1=C(O)c2cc(Cl)ccc2C2(CCOCC2)C1=O)C(=O)O [Example 55, N-((6-Chloro-4-hydroxy-2-oxo-2′,3′,5′,6′-tetrahydro-spiro[naphthalene-1,4′-pyran]-3-yl)carbonyl)-L-alanine]
The IC50 of the first is higher: over 10 µM for the first, 0.1 to 0.5 µM for the second. The second is the more potent here.

Compared with `C[C@@H](NC(=O)C1=C(O)c2cc(Cl)ccc2C2(CCOCC2)C1=O)C(=O)O` [Example 56, N-((6-Chloro-4-hydroxy-2-oxo-2′,3′,5′,6′-tetrahydro-spiro[naphthalene-1,4′-pyran]-3-yl)carbonyl)-D-alanine], `O=C(O)CNC(=O)C1=C(O)c2cc(Cl)ccc2C2(CCCCC2)C1=O` [Example 60, N-((6′-Chloro-4′-hydroxy-2′-oxo-spiro[cyclohexane-1,1′-naphthalen]-3′-yl)carbonyl)glycine] is lower in IC50: over 10 µM for the first, 0.1 to 0.5 µM for the second. The second is the more potent here.

`CC1(C)C(=O)C(C(=O)NCC(=O)O)=C(O)c2cc(Cl)cc(F)c21` [Example 57, N-((6-Chloro-8-fluoro-4-hydroxy-1,1-dimethyl-2-oxo-naphthalen-3-yl)carbonyl)glycine] and `CC1(C)C(=O)C(C(=O)NCC(=O)O)=C(O)c2cc(F)c(F)cc21` [Example 59, N-((6,7-Difluoro-4-hydroxy-1,1-dimethyl-2-oxo-naphthalen-3-yl)carbonyl)glycine] cannot be ordered by IC50: under 0.1 µM for the first, under 0.1 µM for the second.

`Cc1ccc2c(c1)C(O)=C(C(=O)NCC(=O)O)C(=O)C2(C)C` [Example 61, N-((6-Methyl-4-hydroxy-1,1-dimethyl-2-oxo-naphthalen-3-yl)carbonyl)glycine] and `CC1(C)C(=O)C(C(=O)NCC(=O)O)=C(O)c2cc(Cl)c(Cl)cc21` [Example 64, N-((6,7-Dichloro-4-hydroxy-1,1-dimethyl-2-oxo-naphthalen-3-yl)carbonyl)glycine] cannot be ordered by IC50: under 0.1 µM for the first, under 0.1 µM for the second.

Compared with `O=C(O)CNC(=O)C1=C(O)c2cc(Cl)c(Cl)cc2C2(CCOCC2)C1=O` [Example 62, N-((6,7-Dichloro-4-hydroxy-2-oxo-2′,3′,5′,6′-tetrahydro-spiro[naphthalene-1,4′-pyran]-3-yl)carbonyl)glycine], `O=C(O)CNC(=O)C1=C(O)c2cc(-c3ccccc3)ccc2C2(CCCC2)C1=O` [Example 67, N-((4′-Hydroxy-2′-oxo-6′-phenyl-spiro[cyclopentane-1,1′-naphthalen]-3′-yl)carbonyl)glycine] is higher in IC50: under 0.1 µM for the first, 1 to 10 µM for the second.
